From patent publication US20220267288A1, “CARDIAC THERAPEUTIC” (priority 2019, published 2022)
Where two headings read alike, the source gives them in different places.

Experiments:
[1] = tested on: hiPSC-CM; assay: Extracellular field potential duration (FPD), multi electrode array; type: cell-based, human; conditions: MEA, 0-10 μM
Procedure: Electrophysiological perturbations of hiPSC-CM were measured using multi electrode array (MEA) recording system (Multichannel Systems, Reutlingen, Germany). […] FPD measurements were normalized (corrected FPD [cFPD]) to the beating rate of the contracting areas with the Bazzet correction formula: cFPD=FPD/√(RR interval) as described previously^3. One-phase decay algorithm was used to plot corrected FPD curves.

[2] = Aqueous solubility, MultiscreenHTS PCF Filter Plates; type: physicochemical; conditions: aqueous buffer; universal buffer (pH 7.4)
Procedure: The aqueous solubility of each compound was measured in universal buffer (pH 7.4) using MultiscreenHTS PCF Filter Plates. The effective permeability of each compound was measured using the parallel artificial membrane permeability assay (PAMPA).

[3] = tested on: dogs; assay: Electrophysiological variables (AERP, VERP, repolarization periods) in halothane-anesthetized dogs; type: in vivo, dog; conditions: 3 mg/kg
Procedure: Animals were obtained through Kitayama Labes Co., Ltd. (Nagano, Japan). All experiments were approved by the Toho University Animal Care and User Committee (No. 18-51-395) and performed according to the Guideline for the Care and Use of Laboratory Animals of Toho University.
The dogs were initially anesthetized with thiopental sodium (30 mg/kg, i.v.). After intubation with a cuffed endotracheal tube, anesthesia was maintained by inhalation of halothane (1% v/v) vaporized in oxygen with a volume-limited ventilator (SN-480-3; Shinano Manufacturing Co., Ltd., Tokyo, Japan). Tidal volume and respiratory rate were set at 20 mL/kg and 15 breaths/min, respectively. […] To prevent blood clotting, heparin calcium (100 IU/kg) was intravenously administered through a flush line of the catheter sheath placed at the right femoral vein.
The lead II electrocardiogram was obtained from the limb electrodes. The P-wave duration, PR interval, QRS width and QT interval were measured, and QT interval was corrected with Van de Water's formula: QTc=QT-0.087×(RR-1,000) with RR given in ms. The J-Tpeak and Tpeak-Tend were measured as follows. When the end of T-wave was obscure, we used the monophasic action potential (MAP) signal as a guide to estimate the end. The J-Tpeak was corrected for the heart rate with a coefficient as previously described (J-Tpeakc=J-Tpeak/RR^0.58 with RR given in seconds).
A standard 6-French, quad-polar electrodes catheter (Cordis-Webster Inc., Baldwin Park, Calif., USA) was positioned at the non-coronary cusp of the aortic valve through the left femoral artery to obtain the His bundle electrogram. Another 6-French, quad-polar electrode catheter (Cordis-Webster Inc.) was positioned at the sinus nodal areas of the right atrium through the right femoral vein to electrically pace and to record the local electrogram. A bi-directional steerable MAP recording/pacing combination catheter (1675P; EP Technologies, Inc., CA, USA) was positioned at the endocardium of the interventricular septum in the right ventricle through the left femoral vein to obtain MAP signals. The signals were amplified with a DC preamplifier (model 300; EP Technologies, Inc.). The duration of the MAP signals was measured as an interval, along a horizontal line corresponding to the diastolic baseline, from the MAP upstroke to the desired repolarization level. The interval (ms) at 90% repolarization was defined as MAP90.
The heart was electrically driven with a cardiac stimulator (SEC-3102; Nihon Kohden Co., Ltd.) via the pacing electrodes of the combination catheter placed in the right ventricle or the electrodes of the catheter placed at the right atrium. The stimulation pulses were rectangular in shape, 1-2 V (about twice the threshold voltage) and 1 ms duration. The MAP90 of the ventricle was measured during sinus rhythm (MAP90(sinus)) and at a pacing cycle length of 400 ms (MAP90(CL400)) and 300 ms (MAP90(CL300)). The atrial effective refractory period (AERP) and ventricular effective refractory period (VERP) were assessed with the programmed electrical stimulation. The pacing protocol consisted of 5 beats of basal stimuli in a cycle length of 400 ms followed by an extra stimulus of various coupling intervals. Starting in the late diastole, the coupling interval was shortened in 5-ms decrements until the additional stimulus could no longer elicit a response. The AERP and VERP were defined as the shortest coupling interval that could produce a response. The duration of the terminal repolarization period of the ventricle, reflecting phase-3 repolarization time of the action potential, was calculated by the difference between the MAP90(CL400) and VERP (terminal repolarization period=MAP90(CL400)−VERP) at the same site to estimate the extent of electrical vulnerability of the ventricular muscle.

[4] = cited from earlier work
[5] = biological target: T1, CYP2J2 (Homo sapiens, UniProt P51589); assay: Inhibition of CYP2J2-mediated astemizole metabolism in hiPSC-CM; type: cell-based; parameters: endogenous in cells; host or cells: hiPSC-CM (from human foreskin fibroblasts); conditions: 2 μM drug co-incubated with 1 μM astemizole
T1 sequence (P51589 1-502): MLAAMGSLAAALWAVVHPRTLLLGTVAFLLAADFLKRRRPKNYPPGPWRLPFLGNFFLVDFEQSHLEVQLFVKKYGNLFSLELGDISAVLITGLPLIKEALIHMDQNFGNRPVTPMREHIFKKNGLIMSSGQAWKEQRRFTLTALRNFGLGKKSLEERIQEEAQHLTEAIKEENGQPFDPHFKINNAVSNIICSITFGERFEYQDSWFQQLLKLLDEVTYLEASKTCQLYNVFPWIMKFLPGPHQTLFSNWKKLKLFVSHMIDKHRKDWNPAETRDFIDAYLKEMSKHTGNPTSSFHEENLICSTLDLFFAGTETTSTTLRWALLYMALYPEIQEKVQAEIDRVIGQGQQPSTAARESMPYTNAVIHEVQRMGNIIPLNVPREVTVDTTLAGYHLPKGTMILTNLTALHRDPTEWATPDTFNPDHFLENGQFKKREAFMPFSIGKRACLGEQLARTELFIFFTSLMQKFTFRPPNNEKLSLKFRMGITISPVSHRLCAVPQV
Procedure: HiPSC-CM were seeded at a density 100,000 cell/well in a 12-well plate and differentiated for 30 days. […] The cells were then washed with 1×PBS twice and dislodged using Accutase® cell detachment solution. The cells were then pelleted at 2000 g for 10 min at 4° C. The supernatant was discarded and the pellets were resuspended in 100 μL of ice-cold ACN with 0.1 μM buspirone as an internal standard. The cells were sonicated for 15 min on ice to bring about complete cell lysis. The lysate was centrifuged at 10,000×g for 15 min at 4° C. The supernatant was collected and analyzed using LC/MS/MS.
The LC/MS/MS system consisted of an Agilent 1290 Infinity ultra-high pressure liquid chromatography (UPLC) system (Agilent Technologies Inc., Santa Clara, Calif.) interfaced with the AB SCIEX QTRAP® 5500 tandem mass spectrometry (MS/MS) system (AB SCIEX, Framingham, Mass.). The LC/MS/MS system was controlled by Analyst 1.4.2 software (Applied Biosystems) which performed all chromatographic peak integration. The ACQUITY UPLC BEH C18 column, 1.7 μM, 2.1×50 mm (Waters, Milford, Mass.), was used to achieve chromatographic separation. The temperatures of the column and samples were maintained at 45° C. and 4° C. respectively. The mobile phases were 0.2% acetic acid in 5 mM ammonium acetate (solvent A) and 0.2% acetic acid in ACN (solvent B). They were delivered at a flow rate of 0.6 mL/min. […]

CCCCc1oc2ccc(NS(C)(=O)=O)cc2c1C(=O)c1ccc(OCCCN(CCCC)CCCC)cc1.Cl [Dronedarone]
effect on extracellular field potential duration (FPD) [1]: Dose-dependent increase in the FPD | solubility [2]: 3.22 µg/mL | ΔAERP ([3]; 20 min after administration): +43 | ΔVERP ([3]; 20 min after administration): +23 | ΔJ-Tpeakc (early repolarization period) ([3]; 60 min after administration): +7 | ΔTRP (terminal repolarization period) ([3]; 60 min after administration): +11 | ΔTpeak-Tend (late repolarization period) ([3]; 60 min after administration): +25 | Caco-2 permeability ([4]; PBPK parameter): 0.595 ×10⁻⁶ cm/s | Kp of tissues: Adipose ([4]; PBPK parameter): 1 | Kp of tissues: Heart ([4]; PBPK parameter): 1 | Kp of tissues: Kidney ([4]; PBPK parameter): 1 | Kp of tissues: Liver ([4]; PBPK parameter): 38.05 | Kp of tissues: Lung ([4]; PBPK parameter): 64.01 | fu ([4]; PBPK parameter): 0.003 | log P ([4]; PBPK parameter): 6.46 | pKa ([4]; PBPK parameter, monoprotic base): 9.4 | Solubility-pH profile ([4]; pH 3): 1.6 mg/mL | Solubility-pH profile ([4]; pH 4): 1.6 mg/mL | Solubility-pH profile ([4]; pH 5): 1.5 mg/mL | Solubility-pH profile ([4]; pH 6): 0.1 mg/mL | Solubility-pH profile ([4]; pH 7): 0.01 mg/mL | inhibition of CYP2J2 in hiPSC-CM ([5]; 24 h): 98%

Cl.[2H]c1c(NS(C)(=O)=O)c([2H])c2c(C(=O)c3ccc(OCCCN(CCCC)CCCC)cc3)c(CCCC)oc2c1[2H] [Poyendarone, Methanesulfonamide, N-(2-butyl-3-(4-(3-(dibutylamino)propoxy)benzoyl)-1-benzo(4,6,7-d3)-furan-5-yl)hydrochloride]
effect on extracellular field potential duration (FPD) [1]: Dose-dependent increase in the FPD | solubility [2]: 2.43 µg/mL | ΔAERP ([3]; 30 min after administration): +25 | ΔVERP ([3]; 30 min after administration): +14 | ΔAERP ([3]; 45 min after administration): +34 | ΔJ-Tpeakc (early repolarization period) ([3]; 45 min after administration): −5 | ΔTRP (terminal repolarization period) ([3]; 45 min after administration): −1.5 | ΔTpeak-Tend (late repolarization period) ([3]; 45 min after administration): +1 | ΔVERP ([3]; 45 min after administration): +13 | Caco-2 permeability ([4]; PBPK parameter, assumed): 0.595 ×10⁻⁶ cm/s | Kp of tissues: Liver ([4]; PBPK parameter, assumed): 38.05 | Kp of tissues: Lung ([4]; PBPK parameter, assumed): 64.01 | pKa ([4]; PBPK parameter, assumed): 9.4 | Kp of tissues: Adipose ([4]; PBPK parameter): 1 | Kp of tissues: Heart ([4]; PBPK parameter): 1 | Kp of tissues: Kidney ([4]; PBPK parameter): 1 | log P ([4]; PBPK parameter): 6.442 | Additional HLM clearance ([4]; assumed): 55 μL/min/mg microsomal protein | Intrinsic solubility ([4]; assumed): 2.01 × 10^−3 (assumed) mg/mL | inhibition at 24 h, 2 μM ([5]; human, hiPSC-derived cardiomyocytes (hiPSC-CM), probe astemizole (1 μM)): 50%
